Results published in PubChem BioAssay AID1996.
In brackets after ≈: the same amount, converted by molar mass.

Details: buffer; pH 7.4; 200.0 µM

| SMILES | solubility kinetic |
| --- | --- |
| COc1cccc(CSc2nc(N)cc(N)n2)c1 | 28.6 µg/mL (≈ 109 µM) |
| O=C1COc2ccc(S(=O)(=O)N3CCCCCC3)cc2N1 | > 46.6 µg/mL |
| O=C(COC(=O)/C=C/c1ccc([N+](=O)[O-])cc1)NCC1CCCCC1 | 1.5 µg/mL (≈ 4.33 µM) |
| O=C(NC1CCN(C(=O)c2cccc([N+](=O)[O-])c2)CC1)c1ccccc1 | > 53 µg/mL |
| CC1CCCCN1C(=O)COc1ccc2ccc(=O)oc2c1 (stereo not drawn) | 36.4 µg/mL (≈ 121 µM) |
| S=C(Nc1cccc(Cl)c1Cl)N1CCCC1 | 15.7 µg/mL (≈ 57 µM) |
| Cc1ccc(C(=O)NN2CCOCC2)cc1[N+](=O)[O-] | > 39.8 µg/mL |
| CN(C)/C=N/c1c(C#N)cnn1C | > 26.6 µg/mL |
| O=C(c1cc(N2CCOCC2)c(F)cc1[N+](=O)[O-])N1CCOCC1 | 48 µg/mL (≈ 141 µM) |
| Cc1cc(C)c(N=Cc2c(O)c3ccccc3oc2=O)c(C)c1 | < 0.7 µg/mL |
| O=C(c1cccs1)N1CCN=C1SCc1ccc(F)cc1 | < 0.3 µg/mL |
| Cc1ccc(CN(C)C(=O)c2cccc(S(=O)(=O)N3CCc4ccccc43)c2)cc1 | 5.8 µg/mL (≈ 13.8 µM) |
| CC(C)N(C(=S)Nc1cccnc1)c1ccccc1 | 32.8 µg/mL (≈ 121 µM) |
| O=C(NCc1csc(-c2cccs2)n1)Nc1cccc(Cl)c1 | 0.3 µg/mL (≈ 0.857 µM) |
| Cc1cc(C)c2cc(C(=O)Nc3ccccc3)[nH]c2c1 | 1.2 µg/mL (≈ 4.54 µM) |
| COc1ccc(Br)cc1CN1CCSCC1 | 29.3 µg/mL (≈ 96.9 µM) |
| O=C(Cn1cc(C(F)(F)F)cc(Cl)c1=O)NCc1ccccc1 | 7.8 µg/mL (≈ 22.6 µM) |
| Cc1cc(C)c(C)c(S(=O)(=O)N2CCN(C(=O)c3ccco3)CC2)c1C | 4.1 µg/mL (≈ 10.9 µM) |
| Cc1cc(C)c2c(-c3ccc(F)cc3)c(C#N)c(=O)n(C)c2n1 | 0.6 µg/mL (≈ 1.95 µM) |
| COc1ccc(C(=O)COC(=O)CN2C(=O)C3CC=CCC3C2=O)c(OC)c1 (stereo not drawn) | 57.6 µg/mL (≈ 149 µM) |
| Cc1cc(C)c(C(=O)CN2C(=O)NC3(CCCCC3)C2=O)cc1C | 2 µg/mL (≈ 6.09 µM) |
| O=C(CSc1ccccc1C(=O)O)NCc1ccccc1 | 44 µg/mL (≈ 146 µM) |
| COc1ccc(C(=O)OCC(=O)NC2CCCC2)cc1OC | > 46.1 µg/mL |
| CC1(c2ccc(OCC(N)=O)cc2)NC(=O)NC1=O (stereo not drawn) | 35.7 µg/mL (≈ 136 µM) |

| SMILES | solubility kinetic |
| --- | --- |
| O=C(Nc1ccc(F)cc1)c1cccc(N2C(=O)c3ccccc3C2=O)c1 | 0.7 µg/mL (≈ 1.94 µM) |
| ClCC1CN(Cc2ccccc2Cl)CCO1 (stereo not drawn) | 17.3 µg/mL (≈ 66.5 µM) |
| CCN(CC(=O)NCc1cccs1)C(=O)c1cccc(S(=O)(=O)N(C)C)c1 | > 61.4 µg/mL |
| NC(=O)c1ccc(Nc2ccc3nonc3c2[N+](=O)[O-])cc1 | 17.9 µg/mL (≈ 59.8 µM) |
| N#Cc1c(N2CCOCC2)nsc1-c1ccccc1 | 1.6 µg/mL (≈ 5.9 µM) |
| COC(=O)C1CCN(CC(=O)Nc2ccc3c(c2)OCCO3)CC1 | > 50.2 µg/mL |
| COC(=O)c1sccc1NC(=O)COc1cccc(C)c1 | < 0.7 µg/mL |
| CN(CCN1CCOCC1)Cc1nc(-c2ccc3c(c2)OCO3)no1 | 48.5 µg/mL (≈ 140 µM) |
| COC(=O)c1ccsc1NC(=O)c1cccc(OC)c1 | 1.4 µg/mL (≈ 4.81 µM) |
| c1ccc(-c2ccc(CN3CCSCC3)cc2)cc1 | 1.7 µg/mL (≈ 6.31 µM) |
| O=C(CSc1nncn1-c1ccccc1F)NC1CC1 | > 43.8 µg/mL |
| O=C1Nc2ccccc2SC1c1ccccc1 (stereo not drawn) | 1.7 µg/mL (≈ 7.04 µM) |
| O=c1c2cc(-c3ccccc3)sc2nc2n1CCC2 | 1.5 µg/mL (≈ 5.59 µM) |
| CCC(C)[C@H](NC(=O)Nc1ccccc1F)C(=O)O (stereo partly drawn) | > 40.2 µg/mL |
| O=c1o[nH]c(-c2ccccc2)c1-c1ccccc1 | 35 µg/mL (≈ 148 µM) |
| Cc1ccc(C)c(OCC(=O)O/N=C(\N)c2cccnc2)c1 | 11.2 µg/mL (≈ 37.4 µM) |
| Cc1ccc(C(=O)NCCNC(=O)c2ccco2)cn1 | 31.7 µg/mL (≈ 116 µM) |
| O=C(NCc1ccccc1F)Nc1ccc([N+](=O)[O-])cc1 | 1.3 µg/mL (≈ 4.49 µM) |
| COc1cccc(-c2cc(C(=O)NCC3CCCO3)c3cc(Br)cc(C)c3n2)c1 (stereo not drawn) | < 0.5 µg/mL |
| COc1cc2ncnc(NCc3ccc4c(c3)OCO4)c2cc1OC | 3.3 µg/mL (≈ 9.72 µM) |
| COc1ccc(N2CCOCC2)c(NC(=O)c2cc3ccccc3o2)c1 | < 0.4 µg/mL |
| CN(C)C(=S)NC(=O)C12CC3(C)CC(C)(CC(C)(C3)C1)C2 | 1 µg/mL (≈ 3.24 µM) |
| Cc1cc(C)cc(NC(=O)[C@@H](NC(=O)c2ccco2)C(C)C)c1 | 2.8 µg/mL (≈ 8.91 µM) |
| CCCCN(C/C=C/c1ccccc1OC)Cc1ccccc1 | 3.5 µg/mL (≈ 11.3 µM) |

| SMILES | solubility kinetic |
| --- | --- |
| Cc1ccccc1NC(=O)COC(=O)CCSc1ccccc1 | 13.1 µg/mL (≈ 39.8 µM) |
| CC(=O)c1cccc(OCC(=O)NC2CCCCCC2)c1 | > 43.4 µg/mL |
| CCS(=O)(=O)c1ncc(Cl)c(C(=O)Nc2ccccc2OC)n1 | 0.3 µg/mL (≈ 0.843 µM) |
| O=C(Nc1ccc(Br)cc1)N1CCCC(O)C1 (stereo not drawn) | > 44.9 µg/mL |
| Cc1ccc(CN2CCN(C3CCCC3)C(CCO)C2)s1 (stereo not drawn) | 43.7 µg/mL (≈ 142 µM) |
| O=C(CN1CCN(Cc2ccccc2)CC1)N/N=C/c1cccnc1 | > 50.6 µg/mL |
| COCCCNC(=S)N(Cc1ccccc1)Cc1ccc(F)cc1 | 22.1 µg/mL (≈ 63.8 µM) |
| O=C(Nc1ncc([N+](=O)[O-])s1)c1ccccc1Br | 41.1 µg/mL (≈ 125 µM) |
| Cc1ccc(S(=O)(=O)N2CCOCC2)cc1C(=O)OCC(=O)c1c(N)n(C)c(=O)n(C)c1=O | 38.9 µg/mL (≈ 81 µM) |
| CC(=O)c1ccc(NC(=S)NCc2cccnc2)cc1 | > 42.8 µg/mL |
| COC(=O)CC1NCCc2cc(OC)c(OC)cc21 (stereo not drawn) | > 39.8 µg/mL |
| O=C(CNC(=O)c1ccc(Br)o1)NC12CC3CC(CC(C3)C1)C2 | 50.5 µg/mL (≈ 132 µM) |
| O=C(CCCCC(=O)Nc1ccccc1)Nc1ccccc1 | 3.1 µg/mL (≈ 10.5 µM) |
| Cc1ccc(N2CCN(c3ccc([N+](=O)[O-])cn3)CC2)c(C)c1 | 0.3 µg/mL (≈ 0.96 µM) |
| COc1cccc(C(=O)NCC2(c3ccccc3)CCCC2)c1 | 28.4 µg/mL (≈ 91.8 µM) |
| COc1ccc(S(=O)(=O)NCc2csc(C)n2)cc1OC | > 49.3 µg/mL |
| CCC(NC(=O)C1CCCC1)c1ccc(C)cc1 (stereo not drawn) | 34.8 µg/mL (≈ 142 µM) |
| NC(=O)c1ccsc1NC(=O)COC(=O)/C=C/c1ccccc1[N+](=O)[O-] | 4.3 µg/mL (≈ 11.5 µM) |
| Cc1noc(C)c1S(=O)(=O)Nc1ccccc1Oc1ccccc1 | 37.5 µg/mL (≈ 109 µM) |
| CCCNC(=O)c1ccc(C)c(NC(=O)C2=C(C)OCCS2)c1 | > 50.2 µg/mL |
| CC(=O)NS(=O)(=O)c1ccc(NC(=S)Nc2ccccc2)cc1 | > 52.4 µg/mL |
| CCOC(=O)C(Cc1ccccc1)C(=O)NCc1ccccc1 (stereo not drawn) | > 46.7 µg/mL |
| Clc1ccccc1-c1csc(Nc2cccnc2)n1 | 0.3 µg/mL (≈ 1.04 µM) |
| CC(C)n1c(/N=C/c2ccccc2O)nc2ccccc21 | 31.4 µg/mL (≈ 112 µM) |

| SMILES | solubility kinetic |
| --- | --- |
| O=C(COc1ccccc1)NCCc1cnc[nH]1 | > 36.8 µg/mL |
| Cc1ccccc1Nc1nc(N)nc(CCl)n1 | > 37.5 µg/mL |
| COC(=O)c1sccc1NC(=O)C1CCCCC1C(=O)O (stereo not drawn) | 42.1 µg/mL (≈ 135 µM) |
| O=Cc1cc2cc3c(cc2nc1Cl)OCCO3 | 0.9 µg/mL (≈ 3.61 µM) |
| Cn1c(SCC(=O)N2CCCCCC2)nnc1-c1ccco1 | > 48.1 µg/mL |
| CNc1ccc(/C=C(\C#N)C(=O)Nc2ccccn2)cc1[N+](=O)[O-] | 2.8 µg/mL (≈ 8.66 µM) |
| COC(=O)/C=C1/SC(=Nc2ccc(Cl)c(Cl)c2)NC1=O | 1 µg/mL (≈ 3.02 µM) |
| O=c1cc(-c2ccccc2)nc(SCc2ccccc2F)[nH]1 | < 0.3 µg/mL |
| CC(C)[C@H](NC(=O)c1cccc(CN(Cc2ccccc2)C(=O)/C=C/c2ccccc2)c1)C(=O)O | 69 µg/mL (≈ 147 µM) |
| O=C1N(CN2CCOCC2)c2ccccc2C12OCC(CCl)O2 (stereo not drawn) | 49.6 µg/mL (≈ 146 µM) |
| O=C(NCC1CCCO1)c1ccc(NC(=O)c2cccc([N+](=O)[O-])c2)cc1 (stereo not drawn) | 3.5 µg/mL (≈ 9.48 µM) |
| CCOC(=O)C1CCCN(C(=O)c2cc3ccc(OC)cc3[nH]2)C1 (stereo not drawn) | > 49.6 µg/mL |
| CCC1CCC2(CC1)SCC(=O)N2c1ccccc1 (stereo not drawn) | 5.7 µg/mL (≈ 20.7 µM) |
| Nc1nc(Nc2ccccc2)nc(NC2CCCCC2)c1[N+](=O)[O-] | < 0.1 µg/mL |
| COc1cc(C(=O)Nc2ccc(C(=O)O)cc2)ccc1OC(C)=O | > 49.4 µg/mL |
| CN(C)CCn1c(=S)[nH]c2ncccc2c1=O | 35.8 µg/mL (≈ 143 µM) |
| N#Cc1cccc(NC(=O)COC(=O)c2cc(S(=O)(=O)Nc3ccccc3Cl)ccc2O)c1 | 40.4 µg/mL (≈ 83.1 µM) |
| CC(C(=O)O)n1c2ccccc2c2cnn(C)c(=O)c21 (stereo not drawn) | > 40.7 µg/mL |
| O=c1[nH]c(=S)[nH]c(O)c1/C=C1/C=c2ccccc2=N1 | 1.8 µg/mL (≈ 6.63 µM) |
| Cc1cccc(-c2noc(CN(C)C(=O)c3ccco3)n2)c1 | > 44.6 µg/mL |
| Cc1cc(C)c(NC(=O)COC(=O)C23CC4CC(CC(O)(C4)C2)C3)c(Cl)c1 | > 58.8 µg/mL |
| COc1ccc(CNC(=O)COC(=O)c2cc(S(=O)(=O)N3CCOCC3)ccc2O)cc1OC | > 74.2 µg/mL |
| Cn1c(=O)c2[nH]c(-c3ccc(S(=O)(=O)O)cc3)nc2n(C)c1=O.O | > 53.2 µg/mL |
| COc1cc(C(C)=O)ccc1OCC(=O)NC(=O)Nc1ccc(C)cc1C | 14.1 µg/mL (≈ 38.1 µM) |

| SMILES | solubility kinetic |
| --- | --- |
| CN(C)CCCN1C(=O)c2cccc3cccc(c23)C1=O | > 42.4 µg/mL |
| O=C1CN(CC(=O)NC2CCCc3ccccc32)CCN1 (stereo not drawn) | > 43.1 µg/mL |
| Fc1ccccc1CNCCc1ccc2c(c1)OCO2 | 40.5 µg/mL (≈ 148 µM) |
| CCCc1c(C)nc(N2CCN(c3ccccc3OC)CC2)[nH]c1=O | 2.5 µg/mL (≈ 7.3 µM) |
| Cc1ccc(C)c(OCCN2CCOCC2)c1 | 24.9 µg/mL (≈ 106 µM) |
| COC(=O)C1=C(C(=O)OC)SC(=C2C(=S)C(C)(C)N(C(=O)C3CC3)c3ccccc32)S1 | 11.2 µg/mL (≈ 23.5 µM) |
| CCOC(=O)CNC(=O)c1c(C)nn(C)c1Cl | > 39 µg/mL |
| COC(=O)C1=C(C)NC(=O)NC1c1ccc2c(c1)OCO2 (stereo not drawn) | 37.3 µg/mL (≈ 128 µM) |
| Cc1cc(C)cc(NC(=O)c2ccc([N+](=O)[O-])o2)c1 | 8.3 µg/mL (≈ 31.9 µM) |
| CC(C)(C)C(=O)O/N=C(\N)COc1cccc(Cl)c1 | 25.4 µg/mL (≈ 89.2 µM) |
| CCOC(=O)c1cc(C(C)(C)C)nc(SC)c1C#N | 1.3 µg/mL (≈ 4.67 µM) |
| COc1ccc(CCN2C(=O)CSC2c2ccc(F)cc2)cc1 (stereo not drawn) | 34.4 µg/mL (≈ 104 µM) |
| Cc1cc(NC(=O)c2cccs2)no1 | > 31.2 µg/mL |
| O=C1CN(C(=O)c2ccc(F)cc2)c2ccccc2N1 | > 40.5 µg/mL |
| Cc1cc(C)c(S(=O)(=O)Nc2cnc3ccccc3c2)c(C)c1 | 19.2 µg/mL (≈ 58.8 µM) |
| O=C1NC2=C(C(=O)CCC2)C(c2ccccc2Cl)N1 (stereo not drawn) | 39.1 µg/mL (≈ 141 µM) |
| COc1cc(C(=O)OCC(=O)NC2CCCC2)cc(OC)c1OC | > 50.6 µg/mL |
| O=C1c2ccccc2NC(c2ccccc2)N1Cc1ccccc1 (stereo not drawn) | 7.9 µg/mL (≈ 25.1 µM) |
| OCCCN=C1CCCc2c1[nH]c1ccc(Cl)cc21 | 14.4 µg/mL (≈ 52 µM) |
| COc1ccc(C)cc1NC(=S)NN1CCN(C)CC1 | > 44.2 µg/mL |
| Cn1cnc(S(=O)(=O)N2CCN(c3ccc(F)cc3)CC2)c1 | > 48.7 µg/mL |
| CC(C)(CNCc1ccccc1)NS(=O)(=O)c1ccccc1 | > 47.8 µg/mL |
